Measurements as given in ChEMBL document CHEMBL1201862, “PubChem BioAssay data set” (2004).
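Exposure lasted 48 hours, with cells grown in 96-well plates and compounds tested at five concentrations. GI50 is the concentration that inhibits growth by half.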 Activity calls are given as the source filed them. Rule as the data show it: active = GI50 up to about 1.1 µM and inactive = higher.

Experiments:
Test in all cases: inhibition of tumour cell growth, NCI panel, 48 h
TK-10 = tested on: TK-10
OVCAR-4 = tested on: OVCAR-4
NCI-H522 = tested on: NCI-H522
MDA-MB-435 = tested on: MDA-MB-435
CCRF-CEM = tested on: CCRF-CEM
KM12 = tested on: KM12
SR = tested on: SR
ACHN = tested on: ACHN
Malme-3M = tested on: Malme-3M
HOP-92 = tested on: HOP-92
LOX IMVI = tested on: LOX IMVI
SK-MEL-28 = tested on: SK-MEL-28
U-251 = tested on: U-251
HCC 2998 = tested on: HCC 2998
A498 = tested on: A498
MCF7 = tested on: MCF7
NCI-H23 = tested on: NCI-H23
MOLT-4 = tested on: MOLT-4
OVCAR-5 = tested on: OVCAR-5
SK-MEL-2 = tested on: SK-MEL-2

Measured: GI50

[N-]=[N+]=Nc1cc(=O)[nH]nc1-c1ccccc1
inactive: TK-10 > 100 µM | OVCAR-4 > 100 µM | NCI-H522 > 100 µM | MDA-MB-435 > 100 µM | CCRF-CEM > 100 µM | KM12 > 100 µM | SR > 100 µM | ACHN > 100 µM | Malme-3M > 100 µM | HOP-92 > 100 µM | LOX IMVI > 100 µM | SK-MEL-28 > 100 µM | U-251 > 100 µM | HCC 2998 > 100 µM | A498 > 100 µM | MCF7 > 100 µM | NCI-H23 > 100 µM | MOLT-4 > 100 µM

COc1ccc(N2C(=O)C3c4[nH]c5cccc(Cl)c5c4C4CCC(C(C)(C)C)CC4C3C2=O)cc1 (stereo not given)
inactive: TK-10 > 100 µM | OVCAR-4 > 100 µM | NCI-H522 > 100 µM | OVCAR-5 > 100 µM | MDA-MB-435 > 100 µM | KM12 > 100 µM | SR 8.47 µM | ACHN > 100 µM | SK-MEL-2 94.6 µM | Malme-3M > 100 µM | HOP-92 83.2 µM | LOX IMVI > 100 µM | SK-MEL-28 > 100 µM | U-251 39.2 µM | HCC 2998 > 100 µM | A498 74.1 µM | MCF7 > 100 µM | NCI-H23 > 100 µM | MOLT-4 > 100 µM

COC(=O)c1cccc(C)c1C1CN=NC12Cc1c(ccc(C)c1C)C2=O (stereo not given)
inactive: TK-10 > 100 µM | OVCAR-4 56.9 µM | NCI-H522 15.8 µM | OVCAR-5 > 100 µM | MDA-MB-435 35.2 µM | CCRF-CEM 26.1 µM | KM12 23.3 µM | SR 21.3 µM | ACHN 34.4 µM | Malme-3M 22.9 µM | HOP-92 38.4 µM | LOX IMVI > 100 µM | SK-MEL-28 50 µM | U-251 56 µM | HCC 2998 40.4 µM | A498 58.1 µM | MCF7 32.5 µM | NCI-H23 64.1 µM | MOLT-4 23.6 µM

CCOC(=O)c1nc2c(Cl)c3ncccc3cc2[nH]c1=O
inactive: TK-10 > 100 µM | OVCAR-4 49.1 µM | NCI-H522 34.4 µM | OVCAR-5 61.7 µM | MDA-MB-435 32.1 µM | CCRF-CEM 17.5 µM | KM12 31.6 µM | SR 8.73 µM | ACHN 95.7 µM | SK-MEL-2 22.4 µM | Malme-3M > 100 µM | HOP-92 40.6 µM | SK-MEL-28 59.3 µM | U-251 23 µM | HCC 2998 19.6 µM | A498 79.6 µM | MCF7 30.3 µM | NCI-H23 29.3 µM | MOLT-4 10.4 µM
